The subject of experiment [1] is MDA-MB-231. The experiment in a line: drug sensitivity score (DSS), cytotoxicity CellTox Green; higher = more cytotoxic; extreme values may be limits of the assay. The settings on record: 72 h.
The subject of experiment [2] is MDA-MB-231. As to the kind of experiment: drug sensitivity score (DSS), cell viability CellTiter-Glo; higher = more sensitive; extreme values may be limits of the assay. The settings on record: 72 h. For orientation: ATP-based viability assays read luminescence as a measure of living cells.

Structures are written as SMILES.
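Wherever drug sensitivity score (DSS), cytotoxicity CellTox Green is given: DSS summarises each dose–response curve by combining IC50, EC50, maximal inhibition and efficacy across drug concentrations.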

Take `C=CC(=O)Nc1cccc(Nc2nc(Nc3ccc(N4CCN(C(C)=O)CC4)cc3OC)ncc2C(F)(F)F)c1` [Rociletinib]: the drug sensitivity score in the experiment with MDA-MB-231 [1] (shRNA: shPPFIA1_1) turned out to be 0 DSS; with MDA-MB-231 [1] (shRNA: shScramble), 0 DSS; with MDA-MB-231 [2] (shRNA: shPPFIA1_1), 0 DSS; in the experiment on MDA-MB-231 [2] (shRNA: shScramble), 2.8 DSS.
With `O=C(c1cccc(Cl)c1F)N1CCN(Cc2cccc(Nc3nccs3)n2)CC1` [MK-8745], the drug sensitivity score was determined as 0.5 DSS in the experiment on MDA-MB-231 [1] (shRNA: shPPFIA1_1), 0.3 DSS in the experiment on MDA-MB-231 [1] (shRNA: shScramble), 0.9 DSS with MDA-MB-231 [2] (shRNA: shPPFIA1_1) and 0.3 DSS in the experiment on MDA-MB-231 [2] (shRNA: shScramble).
Take `Clc1ccccc1C(c1ccccc1)(c1ccccc1)n1cccn1` [TRAM-34]: the drug sensitivity score with MDA-MB-231 [1] (shRNA: shPPFIA1_1), in the experiment with MDA-MB-231 [1] (shRNA: shScramble), in the experiment with MDA-MB-231 [2] (shRNA: shPPFIA1_1) and with MDA-MB-231 [2] (shRNA: shScramble) was 0 DSS throughout.
`C[C@@H](Oc1cc(-c2cnn(C3CCNCC3)c2)cnc1N)c1c(Cl)ccc(F)c1Cl` [Crizotinib]: the drug sensitivity score with MDA-MB-231 [1] (shRNA: shPPFIA1_1) was 0 DSS; in the experiment on MDA-MB-231 [1] (shRNA: shScramble), 0 DSS; with MDA-MB-231 [2] (shRNA: shPPFIA1_1), 0.1 DSS; in the experiment with MDA-MB-231 [2] (shRNA: shScramble), 0 DSS.
As for `Nc1nccc(-c2c(-c3ccc(F)cc3)ncn2C2CCCCC2)n1`, the drug sensitivity score in the experiment on MDA-MB-231 [1] (shRNA: shPPFIA1_1), in the experiment with MDA-MB-231 [1] (shRNA: shScramble), in the experiment on MDA-MB-231 [2] (shRNA: shPPFIA1_1) and with MDA-MB-231 [2] (shRNA: shScramble) was 0 DSS throughout.
In the case of `CCCC(CCC)C(=O)O` [Valproic acid], the drug sensitivity score in the experiment on MDA-MB-231 [1] (shRNA: shPPFIA1_1), with MDA-MB-231 [1] (shRNA: shScramble), in the experiment with MDA-MB-231 [2] (shRNA: shPPFIA1_1) and in the experiment on MDA-MB-231 [2] (shRNA: shScramble) was 0 DSS in each case.
Regarding `CN(C)CCN1C(=O)c2cccc3cc(N)cc(c23)C1=O` [Amonafide], the drug sensitivity score in the experiment with MDA-MB-231 [1] (shRNA: shPPFIA1_1) is 1 DSS; in the experiment with MDA-MB-231 [1] (shRNA: shScramble), 2.5 DSS; in the experiment on MDA-MB-231 [2] (shRNA: shPPFIA1_1) it was 3.5 DSS; with MDA-MB-231 [2] (shRNA: shScramble), 8.2 DSS.
In the same order, the values of `CC(C)C[C@H](NC(=O)[C@H](CCc1ccccc1)NC(=O)CN1CCOCC1)C(=O)N[C@@H](Cc1ccccc1)C(=O)N[C@@H](CC(C)C)C(=O)[C@@]1(C)CO1` [Carfilzomib] are 21.9 DSS, 22.1 DSS, 16.5 DSS and 21.4 DSS.
`COc1cc2ncnc(Nc3ccc(F)c(Cl)c3)c2cc1NC(=O)/C=C/CN1CCCCC1` [Dacomitinib]: the drug sensitivity score with MDA-MB-231 [1] (shRNA: shPPFIA1_1) stood at 0 DSS; in the experiment with MDA-MB-231 [1] (shRNA: shScramble) it was 4.7 DSS; with MDA-MB-231 [2] (shRNA: shPPFIA1_1) it was 0.9 DSS; with MDA-MB-231 [2] (shRNA: shScramble), 0 DSS.
As to `C=CCNC1=C2C[C@@H](C)C[C@H](OC)[C@H](O)[C@@H](C)/C=C(\C)[C@H](OC(N)=O)[C@@H](OC)/C=C\C=C(/C)C(=O)NC(=CC1=O)C2=O` [Tanespimycin], the drug sensitivity score with MDA-MB-231 [1] (shRNA: shPPFIA1_1) is 2 DSS; in the experiment on MDA-MB-231 [1] (shRNA: shScramble), 3.1 DSS; in the experiment with MDA-MB-231 [2] (shRNA: shPPFIA1_1), 6.7 DSS; with MDA-MB-231 [2] (shRNA: shScramble) it was 12.3 DSS.
In the same order, the values of `CN1CCN(c2cc(C(=O)Nc3ccc4c(c3)-c3c(c(C(N)=O)nn3-c3ccc(F)cc3)CC4)c(Cl)cn2)CC1` [PHA 408] are 5.2 DSS, 6.9 DSS, 4.2 DSS and 6.3 DSS.
On the same counts, the results for `COc1cc2nccc(Oc3ccc(NC(=O)C4(C(=O)Nc5ccc(F)cc5)CC4)cc3)c2cc1OC` [Cabozantinib] are 0 DSS, 0 DSS, 3.2 DSS and 1.1 DSS.
On the same counts, the results for `CCCNC(=O)Nc1ccc(Oc2ncnc3cc(OC)c(OC)cc23)cc1Cl` [KRN-633] are 0 DSS, 0 DSS, 0 DSS and 0.9 DSS.
Take `COc1cc2c(cc1O)CC[C@@H]1[C@@H]2CC[C@]2(C)[C@@H](O)CC[C@@H]12` [2-methoxyestradiol]: the drug sensitivity score in the experiment with MDA-MB-231 [1] (shRNA: shPPFIA1_1) was 0 DSS; in the experiment on MDA-MB-231 [1] (shRNA: shScramble), 0.3 DSS; with MDA-MB-231 [2] (shRNA: shPPFIA1_1), 0.7 DSS; in the experiment with MDA-MB-231 [2] (shRNA: shScramble), 2.9 DSS.
On the same counts, the results for `COc1cc(Nc2ncc(F)c(Nc3ccc4c(n3)N(COP(=O)(O)O)C(=O)C(C)(C)O4)n2)cc(OC)c1OC` [Fostamatinib] are 1.6 DSS, 0.8 DSS, 1 DSS and 5.3 DSS.
In the same order, the values of `NC(=O)N1CCC(CC(=O)N2CCC([C@H]3c4ncc(Br)cc4CCc4cc(Cl)cc(Br)c43)CC2)CC1` [Lonafarnib] are 0 DSS, 0 DSS, 2.4 DSS and 3.1 DSS.

For the origin of these results see the supplement of paper PMC10920090.
